This is an account of results in patent US20190284136A1, “INDOLINE DERIVATIVES” (ViiV HEALTHCARE UK LIMITED, priority 2016, published 2019).

One may read the IC50 as the concentration at which inhibition is half-maximal. A low value points to inhibition by little substance.

The test system of this assay is HIV. Nature of the assay: Table 1 IC50 of the examples (assay method not given; patent concerns inhibiting HIV replication). The format is cell-based. The settings on record: Human immunodeficiency virus 1.
In the case of `Cc1cc2c(c(-c3cc(F)c4c(c3C)CCCO4)c1[C@H](OC(C)(C)C)C(=O)O)CCN2C(=O)C1CCCc2ccccc21` (stereo partly drawn) [Example 105, (2S)-2-(tert-Butoxy)-2-((4R)-4-(8-fluoro-5-methylchroman-6-yl)-6-methyl-1-(1,2,3,4-tetrahydronaphthalene-1-carbonyl)indolin-5-yl)acetic acid], the IC50 was found to be 0.021 µM.

In the case of `Cc1cc2c(c(-c3cc(F)c4c(c3C)CCCO4)c1[C@H](OC(C)(C)C)C(=O)O)CCN2C(=O)C1CCOC1` (stereo partly drawn) [Example 134, (2S)-2-(tert-Butoxy)-2-((4R)-4-(8-fluoro-5-methylchroman-6-yl)-6-methyl-1-(tetrahydrofuran-3-carbonyl)indolin-5-yl)acetic acid], the IC50 worked out at 0.453 µM. The same measure for `Cc1cc2c(c(-c3cc(F)c4c(c3C)CCCO4)c1[C@H](OC(C)(C)C)C(=O)O)CCN2C(=O)c1cc(F)cc(C(F)(F)F)c1` [Example 143, (S)-2-(tert-Butoxy)-2-((R)-1-(3-fluoro-5-(trifluoromethyl)benzoyl)-4-(8-fluoro-5-methylchroman-6-yl)-6-methylindolin-5-yl)acetic acid]: 0.014 µM; for `COc1cncc(C(=O)N2CCc3c2cc(C)c([C@H](OC(C)(C)C)C(=O)O)c3-c2cc(F)c3c(c2C)CCCO3)c1` [Example 151, (2S)-2-(tert-Butoxy)-2-(4-(8-fluoro-5-methylchroman-6-yl)-1-(5-methoxynicotinoyl)-6-methylindolin-5-yl)acetic acid]: 0.017 µM; for `COc1cc(F)cc(C(=O)N2CCc3c2cc(C)c([C@H](OC(C)(C)C)C(=O)O)c3-c2cc(F)c3c(c2C)CCCO3)c1` [Example 158, (S)-2-(tert-Butoxy)-2-((R)-1-(3-fluoro-5-methoxybenzoyl)-4-(8-fluoro-5-methylchroman-6-yl)-6-methylindolin-5-yl) acetic acid]: 0.003 µM.

As to `COc1ccc(C(=O)n2ccc3c(-c4cc(F)c5c(c4C)CCCO5)c([C@H](OC(C)(C)C)C(=O)O)c(C)cc32)cc1C` [Example 202, (S)-2-(tert-Butoxy)-2-((R)-4-(8-Fluoro-5-methylchroman-6-yl)-1-(4-methoxy-3-methylbenzoyl)-6-methyl-1H-indol-5-yl)acetic acid], the 50% inhibitory concentration (IC50) amounted to 0.093 µM. `Cc1ccc(-c2c3c(cc(C)c2C(OC(C)(C)C)C(=O)O)N(CC(=O)c2ccccc2)CCC3)cc1` (centres unmarked) [Example 207, 2-(tert-Butoxy)-2-(7-methyl-1-(2-oxo-2-phenylethyl)-5-(p-tolyl)-1,2,3,4-tetrahydroquinolin-6-yl)acetic acid] displayed an IC50 of 3.5 µM.

In turn, `Cc1ccc(-c2c3c(cc(C)c2C(OC(C)(C)C)C(=O)O)N(C(=O)OCc2ccccc2)CCC3)cc1` (centres unmarked) [Example 208, 2-(1-((Benzyloxy)carbonyl)-7-methyl-5-(p-tolyl)-1,2,3,4-tetrahydroquinolin-6-yl)-2-(tert-butoxy)acetic acid] registered an IC50 of 1.12 µM. The value for `COC(=O)c1cccc(CN2CCCc3c2cc(C)c(C(OC(C)(C)C)C(=O)O)c3-c2ccc(C)cc2)c1` (centres unmarked) [Example 209, 2-(tert-Butoxy)-2-(1-(3-(methoxycarbonyl)benzyl)-7-methyl-5-(p-tolyl)-1,2,3,4-tetrahydroquinolin-6-yl)acetic acid] was 1.34 µM; that for `CCCNC(=O)N1CCCc2c1cc(C)c(C(OC(C)(C)C)C(=O)O)c2-c1ccc(C)cc1` (centres unmarked) [Example 210, 2-(tert-Butoxy)-2-(7-methyl-1-(propylcarbamoyl)-5-(p-tolyl)-1,2,3,4-tetrahydroquinolin-6-yl)acetic acid] was 4.29 µM; that for `Cc1ccc(-c2c3c(cc(C)c2C(OC(C)(C)C)C(=O)O)N(c2ccccc2)CCC3)cc1` (centres unmarked) [Example 211, 2-(tert-Butoxy)-2-(7-methyl-1-phenyl-5-(p-tolyl)-1,2,3,4-tetrahydroquinolin-6-yl)acetic acid] was 10.4 µM. The value for `Cc1ccc(-c2c3c(cc(C)c2C(OC(C)(C)C)C(=O)O)N(Cc2ccc(F)c(F)c2)CCC3)cc1` (centres unmarked) [Example 212, 2-(tert-Butoxy)-2-(1-(3,4-difluorobenzyl)-7-methyl-5-(p-tolyl)-1,2,3,4-tetrahydroquinolin-6-yl)acetic acid] was 1.03 µM; that for `Cc1ccc(-c2c3c(cc(C)c2C(OC(C)(C)C)C(=O)O)N(S(=O)(=O)N2CCCCC2)CCC3)cc1` (centres unmarked) [Example 213, 2-(tert-Butoxy)-2-(7-methyl-1-(piperidin-1-ylsulfonyl)-5-(p-tolyl)-1,2,3,4-tetrahydroquinolin-6-yl)acetic acid] was 3.41 µM. The value for `Cc1ccc(-c2c3c(cc(C)c2C(OC(C)(C)C)C(=O)O)N(C(=O)c2cccc(F)c2)CCC3)cc1` (centres unmarked) [Example 214, 2-(tert-Butoxy)-2-(1-(3-fluorobenzoyl)-7-methyl-5-(p-tolyl)-1,2,3,4-tetrahydroquinolin-6-yl)acetic acid] was 3.56 µM.
